One may read the Kd as the concentration at which binding is half-saturated. Low readings indicate higher affinity, high ones lower affinity.

The text below walks through data of PMC9942140 (Journal of medicinal chemistry, 2022).

The structures appear in SMILES notation.

The experiment addresses T1, hepatocyte nuclear factor 4α (HNF4α) (Homo sapiens, UniProt P41235).
T1 sequence (P41235 147-377): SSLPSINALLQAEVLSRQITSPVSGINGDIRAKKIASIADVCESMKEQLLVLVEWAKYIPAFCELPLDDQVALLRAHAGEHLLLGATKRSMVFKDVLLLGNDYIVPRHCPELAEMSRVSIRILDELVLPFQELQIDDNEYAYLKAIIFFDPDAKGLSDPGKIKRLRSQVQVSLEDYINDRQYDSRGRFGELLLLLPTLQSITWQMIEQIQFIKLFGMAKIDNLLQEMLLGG
In words: intrinsic tyrosine/tryptophan fluorescence quenching titration of purified LBD. Format: binding.

`COc1cc(C)c(C(C)C)cc1S(=O)(=O)N(CC(O)Cn1nnnc1-c1ccccn1)c1ccccc1C` (racemic) [compound 33, N-(2-Hydroxy-3-(5-(pyridin-2-yl)-1H-tetrazol-1-yl)propyl)-5-isopropyl-2-methoxy-4-methyl-N-(o-tolyl)benzenesulfonamide] displayed a Kd of 312 nM.
